Assay results: patent US20230220006A1, “REGENTIDE-034 AND COMPOSITION FOR IMPROVING CONDITION OF SKIN, CONTAINING SAME” (NI[…]., LTD., priority 2020, published 2023)
Where a SMILES comes first, the peptide text is derived from it.

Key:
HaCaT cells = test: Cytotoxicity evaluation (CCK8) in epidermal keratinocytes; type: cell-based, human; settings: 5 µM or 10 µM, 48 hours, FBS-free medium
Experimental: (§1) The cytotoxicity of Regentide-034 prepared in Example 1 above was evaluated. Specifically, cytotoxicities were measured in HaCaT cells, which are human epidermal keratinocytes, and CCD-986Sk, which is human fibroblasts. Keratinocytes were dispensed at 3 × 10^3 cells/well and fibroblasts were dispensed at 5 × 10^3 cells/well in a 96-well plate, and then cultured in cell culture conditions for 24 hours in a medium containing 10% FBS. After culturing, 5 µM or 10 µM of Regentide-034 was added to an FBS-free medium, and this was cultured for 48 hours. Thereafter, 10 µl per well of CCK8 reaction solution (Dojindo Molecular Technologies, Kumamoto, Japan) was treated and reacted for 4 hours, and then absorbance was measured at 450 nm. The average absorbance value for each sample group was obtained, and the cell viability was evaluated by comparing it with the absorbance value of cells that had not been treated with Regentide-034 as a control group.

CCD-986Sk = test: Cytotoxicity evaluation (CCK8) in fibroblasts; type: cell-based, human; settings: 5 µM or 10 µM, 48 hours, FBS-free medium
Experimental: as §1

## C[C@H](N)C(=O)N[C@@H](Cc1ccc(O)cc1)C(=O)NCC(=O)N[C@@H](CS)C(=O)N[C@@H](Cc1ccc(O)cc1)C(=O)N[C@@H](CS)C(=O)NCC(=O)N[C@@H](Cc1c[nH]c2ccccc12)C(=O)NCC(=O)NCC(N)=O [Regentide-034, AYGCYCGWGG-NH2] (H-AYGCYCGWGG-NH2)
HaCaT cells
  cytotoxicity (cell viability) to epidermal keratinocytes: not toxic
CCD-986Sk
  cytotoxicity (cell viability) to fibroblasts: not toxic
